In article PMC11992225, “Antibacterial compounds against non-growing and intracellular bacteria” (npj Antimicrobials and Resistance, 2025):
Values joined by “and” are separate entries in the source; they are usually repeats but may differ in a detail not shown here. Equal entries are not always repeated.

Assays:
[1] = tested on: non-growing P. aeruginosa DSM1117; assay: Dilution-regrowth assay (OD600, start-growth-time) on stationary-phase P. aeruginosa; format: cell-based, Pseudomonas aeruginosa; details: Pseudomonas aeruginosa, DSM1117; P. aeruginosa; regrowth delay of non-growing bacteria, 1:4 CA-MHB pH 7.4, 24 h treatment, OD600 8 h after dilution; read-out: EC50
Method: To determine the spectrum of activity of the compounds that were effective against non-growing UPEC, we further assessed their efficacy against the well-characterized Gram-negative and Gram-positive reference strains P. aeruginosa DSM1117 and S. aureus DSM2569, respectively. The cultures were grown and treated for 24 h in 1:4 CA-MHB (pH 7.4). […].
For better characterization of the compounds causing the strongest regrowth delay, we performed the regrowth step of the dilution-regrowth experiments on a plate reader, measuring the OD600 at 20-min intervals for over 20 h instead of using an endpoint measurement. This approach allowed us to capture the time when cultures reached a threshold optical density (start-growth-time, SGT[15]).
Overnight cultures of UPEC, P. aeruginosa and S. aureus were grown in test tubes containing 3 ml of LB broth (~16 h), then diluted 1:100 into either 1:4 diluted CA-MHB medium buffered with 40 mM HEPES (pH 7.4) or, in case of UPEC, into LPM medium[25] supplemented with 49 µM MgCl2 and buffered with 30 mM MES (pH 5.5). The cultures were incubated for 24 h in non-baffled Erlenmeyer flasks at 37 °C with shaking at 200 rpm.
For P. aeruginosa and S. aureus, dose–response analysis was conducted in 96-well plates with a 200 μl assay volume, following the procedure used for screening assay validation experiments. Aliquots of the 39 compounds active against non-growing UPEC were obtained from SelleckChem and MedChem Express. Stock solutions were prepared and stored according to the manufacturers’ instructions, then diluted in 10% DMSO before use. Cultures were incubated for 24 h in 1:4 diluted CA-MHB medium under the same conditions used for UPEC cultivation. In preliminary experiments, each compound was tested at a concentration of 20 μM in the dilution-regrowth assay with 4 technical replicates. Regrowth was monitored using a microplate reader at 37 °C with continuous shaking, and OD600 was recorded every 20 min. The time at which OD600 exceeded the threshold of 0.12 was recorded as the Start_Growth-Time.
The statistical analysis of all data, as well as EC50 and IC50 determination, was conducted using GraphPad Prism 10.2.3. Statistical significance of the drug effects was assessed using a one-way ANOVA followed by Dunnett’s test, comparing each treatment to the drug-free control. Statistical significance of the differences in chemical characteristics between the hit compounds and the Prestwick library was assessed using a Mann–Whitney test. Statistical significance was set at P ≤ 0.05. A five-parameter logistic equation was used for asymmetric sigmoidal curve fitting and for EC50 and IC50 determination. The Venn diagram in Fig. 1F was prepared using BioVenn web application. Characteristics of the chemical and physical properties of Prestwick library compounds were obtained from Supplementary Table S1 from reference. Characteristics of the hit compounds not included in the Prestwick library were retrieved from the PubChem database.

non-growing UPEC CFT073 = assay: Dose-dependent killing analysis (CFU spot-plating) of stationary-phase UPEC; format: cell-based, Escherichia coli
Method in brief: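 Killing assessed by CFU counts: overnight 37 °C LB agar spot plates (10 μl drops of 10-fold PBS dilutions) scored at the lowest dilution with distinct colonies. Samples were compound-treated non-growing UPEC CFT073, 200 μl per well. Performed as three biological replicates.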

[2] = E. coli in 1:4 CA-MHB (pH 7.4), drug concentration 0.25
[3] = E. coli in 1:4 CA-MHB (pH 7.4), drug concentration 0.25, before treatment 8.977
[4] = E. coli in 1:4 CA-MHB (pH 7.4), drug concentration 0.5
[5] = E. coli in 1:4 CA-MHB (pH 7.4), drug concentration 0.5, before treatment 8.977
[6] = E. coli in 1:4 CA-MHB (pH 7.4), drug concentration 1
[7] = E. coli in 1:4 CA-MHB (pH 7.4), drug concentration 1, before treatment 8.977
[8] = E. coli in 1:4 CA-MHB (pH 7.4), drug concentration 2.5
[9] = E. coli in 1:4 CA-MHB (pH 7.4), drug concentration 2.5, before treatment 8.977
[10] = E. coli in 1:4 CA-MHB (pH 7.4), drug concentration 5
[11] = E. coli in 1:4 CA-MHB (pH 7.4), drug concentration 5, before treatment 8.977
[12] = E. coli in 1:4 CA-MHB (pH 7.4), drug concentration 10
[13] = E. coli in 1:4 CA-MHB (pH 7.4), drug concentration 10, before treatment 8.977

Structure (SMILES)	EC50 [1] [µM]	killing, average Δlog10(CFU/ml) (non-growing UPEC CFT073; [2])	log10(CFU/ml) of treated nongrowing bacteria (single replicates) (non-growing UPEC CFT073; [3])	killing, average Δlog10(CFU/ml) (non-growing UPEC CFT073; [4])	log10(CFU/ml) of treated nongrowing bacteria (single replicates) (non-growing UPEC CFT073; [5])	killing, average Δlog10(CFU/ml) (non-growing UPEC CFT073; [6])	log10(CFU/ml) of treated nongrowing bacteria (single replicates) (non-growing UPEC CFT073; [7])	killing, average Δlog10(CFU/ml) (non-growing UPEC CFT073; [8])	log10(CFU/ml) of treated nongrowing bacteria (single replicates) (non-growing UPEC CFT073; [9])	killing, average Δlog10(CFU/ml) (non-growing UPEC CFT073; [10])	log10(CFU/ml) of treated nongrowing bacteria (single replicates) (non-growing UPEC CFT073; [11])	killing, average Δlog10(CFU/ml) (non-growing UPEC CFT073; [12])	log10(CFU/ml) of treated nongrowing bacteria (single replicates) (non-growing UPEC CFT073; [13])	other results
C[C@@H]1CN(c2c(F)c(N)c3c(=O)c(C(=O)O)cn(C4CC4)c3c2F)C[C@H](C)N1 [Sparfloxacin]	0.381	0.241 log10(CFU/ml)	8.954 log10(CFU/ml) and 8.778 log10(CFU/ml) and 8.477 log10(CFU/ml)	0.055 log10(CFU/ml)	9.114 log10(CFU/ml) and 8.699 log10(CFU/ml) and 8.954 log10(CFU/ml)	0.246 log10(CFU/ml)	9.114 log10(CFU/ml) and 8.301 log10(CFU/ml) and 8.778 log10(CFU/ml)	0.077 log10(CFU/ml)	9.380 log10(CFU/ml) and 8.477 log10(CFU/ml) and 8.845 log10(CFU/ml)	0.562 log10(CFU/ml)	8.602 log10(CFU/ml) and 8.342 log10(CFU/ml) and 8.301 log10(CFU/ml)	1.084 log10(CFU/ml)	8.301 log10(CFU/ml) and 7.602 log10(CFU/ml) and 7.778 log10(CFU/ml)	–
N[C@@H]1[C@H]2CN(c3nc4c(cc3F)c(=O)c(C(=O)O)cn4-c3ccc(F)cc3F)C[C@@H]12 [Trovafloxacin]	1.02	0.343 log10(CFU/ml)	9.041 log10(CFU/ml) and 8.447 log10(CFU/ml) and 8.415 log10(CFU/ml)	0.539 log10(CFU/ml)	8.699 log10(CFU/ml) and 8.362 log10(CFU/ml) and 8.255 log10(CFU/ml)	0.839 log10(CFU/ml)	8.255 log10(CFU/ml) and 8.204 log10(CFU/ml) and 7.954 log10(CFU/ml)	1.866 log10(CFU/ml)	7.255 log10(CFU/ml) and 6.903 log10(CFU/ml) and 7.176 log10(CFU/ml)	2.103 log10(CFU/ml)	7.146 log10(CFU/ml) and 6.699 log10(CFU/ml) and 6.778 log10(CFU/ml)	2.608 log10(CFU/ml)	6.462 log10(CFU/ml) and 6.322 log10(CFU/ml) (2×)	killing, average Δlog10(CFU/ml) (non-growing UPEC CFT073; E. coli in LPM (pH 5.5), drug concentration 0.25): 0.094 log10(CFU/ml); log10(CFU/ml) of treated nongrowing bacteria (single replicates) (non-growing UPEC CFT073; E. coli in LPM (pH 5.5), drug concentration 0.25, before treatment 7.350): 7.146 log10(CFU/ml) and 6.544 log10(CFU/ml) and 8.079 log10(CFU/ml); killing, average Δlog10(CFU/ml) (non-growing UPEC CFT073; E. coli in LPM (pH 5.5), drug concentration 0.5): 0.009 log10(CFU/ml); log10(CFU/ml) of treated nongrowing bacteria (single replicates) (non-growing UPEC CFT073; E. coli in LPM (pH 5.5), drug concentration 0.5, before treatment 7.350): 7.146 log10(CFU/ml) and 6.732 log10(CFU/ml) and 8.146 log10(CFU/ml); killing, average Δlog10(CFU/ml) (non-growing UPEC CFT073; E. coli in LPM (pH 5.5), drug concentration 1): 0.00468 log10(CFU/ml); log10(CFU/ml) of treated nongrowing bacteria (single replicates) (non-growing UPEC CFT073; E. coli in LPM (pH 5.5), drug concentration 1, before treatment 7.350): 7.255 log10(CFU/ml) and 6.740 log10(CFU/ml) and 8.041 log10(CFU/ml); killing, average Δlog10(CFU/ml) (non-growing UPEC CFT073; E. coli in LPM (pH 5.5), drug concentration 2.5): 0.225 log10(CFU/ml); log10(CFU/ml) of treated nongrowing bacteria (single replicates) (non-growing UPEC CFT073; E. coli in LPM (pH 5.5), drug concentration 2.5, before treatment 7.350): 7.230 log10(CFU/ml) and 6.447 log10(CFU/ml) and 7.699 log10(CFU/ml); killing, average Δlog10(CFU/ml) (non-growing UPEC CFT073; E. coli in LPM (pH 5.5), drug concentration 5): 0.336 log10(CFU/ml); log10(CFU/ml) of treated nongrowing bacteria (single replicates) (non-growing UPEC CFT073; E. coli in LPM (pH 5.5), drug concentration 5, before treatment 7.350): 6.699 log10(CFU/ml) and 6.763 log10(CFU/ml) and 7.580 log10(CFU/ml); killing, average Δlog10(CFU/ml) (non-growing UPEC CFT073; E. coli in LPM (pH 5.5), drug concentration 10): 0.963 log10(CFU/ml); log10(CFU/ml) of treated nongrowing bacteria (single replicates) (non-growing UPEC CFT073; E. coli in LPM (pH 5.5), drug concentration 10, before treatment 7.350): 6.146 log10(CFU/ml) and 6.415 log10(CFU/ml) and 6.602 log10(CFU/ml)
